These results are taken from US10676474B2, “1,6-naphthyridine derivatives as CDK4/6 inhibitor” (CSTONE PHARMACEUTICALS, priority 2016, dated 2020).

The structures appear in SMILES notation. Converted amounts (≈) assume the structure as drawn.

A short description of series [1]: Thermodynamic solubility test (shake-flask, HPLC). Format: physicochemical. The conditions noted are these: phosphate buffer, aqueous buffer, thermodynamic from solid; QC samples, pH 7.4; read-out: Thermodynamic solubility pH 7.4. The method, then:
The thermodynamic solubility of the compounds was determined by the shake-flask method and HPLC. The solubility of the compounds is an important property that affects drug screening of compounds and the absorption of compounds in animals and humans. A saturated solution of the compound was first given and quantitatively tested by HPLC to obtain the solubility of the compound.
50 mM phosphate buffer solution, pH 7.4.
Not less than 2 mg of the sample powder was weighed into a vial of Whatman miniuniprep. If test of the thermodynamic solubility of a sample in multiple buffer solutions is required, an individual vial is required for each test.
450 μL of the buffer solution (pH 7.4) was added to each Whatman miniuniprep vial.
After the addition of the buffer solution, the Whatman miniuniprep cap with a filter was mounted and pressed above the liquid level so that the filter could contact with the buffer solution during shaking.
And the observation of the solution was recorded.
It was shaked at 550 RPM for 24 hours at room temperature (about 22 to 25° C.).
The Whatman Miniunipreps filter cap was pressed to the bottom to give the filtrate of the sample solubility solution. All sample vials should be filtered before and after insoluble substances and their leakage.
The buffer was diluted 50 folds to give a sample diluent.
Three UV standards from low to high concentration were injected into HPLC, followed by the injection of the dilutions and supernatants of the tested compounds. The tested sample was injected twice.

Another series is described as follows: physchem. The conditions noted are these: phosphate buffer, pH 7.4, aqueous buffer, kinetic from dmso stock.
For series [2], the system named is LU-01-0393 lung cancer patient-derived tumor tissue xenograft (PDX). The experiment in a line: In vivo pharmacodynamic study (1), LU-01-0393 PDX. On the set-up: species or system BALB/c nude mice. The conditions noted are these: 60 mg/kg orally daily. The method, then:
The in vivo pharmacodynamic experiments were performed on the BALB/c nude mice implanted subcutaneously with the LU-01-0393 lung cancer patient-derived tumor tissue xenograft (PDX).
BALB/c nude mice, female, 6-8 weeks, weighing approximately 17-21 g, were placed in a single ventilated cage (5 mice per cage) under a special pathogen free environment. All of the cages, beddings and water were disinfected before use. All of the animals were permitted free access to a standard certified commercial laboratory diet. A total of 36 mice purchased from Vital River Laboratory Animal Co., LTD, Beijing were used for the study. Each mouse was implanted subcutaneously with a tumor LU-01-0393 FP4 section (20-30 mm^3) in the right back for tumor growth. The dosing initiated when the average tumor volume reached about 150-200 mm^3. The tumor volume was measured twice a week using a two-dimensional caliper, and the volume was measured in mm^3, calculated by the following the formula: V=0.5 a×b^2, wherein, a and b were the long and short diameters of the tumor, respectively. The antitumor efficacy was determined by dividing the average increase in the tumor volume of the animals treated with the compound by the average increase in the tumor volume of the untreated animals.

The target of the next series is T1, CDK4/cyclin D1 (Homo sapiens, UniProt P11802).
T1 construct: purchased Life technology
Briefly: Enzyme activity assay CDK4/cyclin D1 (Lance Ultra). The conditions noted are these: 0.3 nM CDK4/cyclin D1, 350 μM ATP, 180 minutes. Format: biochemical. The method, then:
(§1) CDK4/cyclin D1, CDK6/cyclin D1 (Life technology). ULight labeled polypeptide substrates ULight-4E-BP1 and ULight-MBP (PerkinElmer). Europium labeled anti-myelin basic protein antibody and europium labeled rabbit-derived antibody (PerkinElmer). Envision Multi-label Analyzer (PerkinElmer) for signal detection.
They were respectively dissolved in an enzyme buffer solution comprising: 50 mM hydroxyethylpiperazine ethanesulfuric acid solution at pH 7.5, 1 mM ethylenediaminetetraacetic acid, 10 mM magnesium chloride, 0.01% Brij-35, 2 mM dithiothreitol. After the reaction was begun, the OptiPlate 384-well plate was sealed with a top heat seal film TopSeal-A, and incubated at room temperature for 180 minutes.
(§2) The termination buffer solution of the enzymatic reaction was prepared, and EDTA was dissolved in a 1-fold diluted assay buffer solution. The reaction was terminated and incubated at room temperature for 5 minutes. 5 μL of the assay mixed solution (prepared with europium labeled anti-myelin basic protein antibody and europium labeled rabbit-derived antibody, respectively) was added to the reactions of CDK4/cyclin D1 and CDK6/cyclin D1, respectively, and incubated at room temperature for 60 minutes. The reaction signal was detected by Envision according to the time-resolved fluorescence resonance energy transfer theory.

A further series addresses T2, CDK6/cyclin D1 (Homo sapiens, UniProt Q00534).
T2 construct: purchased Life technology
Briefly: Enzyme activity assay CDK6/cyclin D1 (Lance Ultra). Format: biochemical. As to conditions: 0.8 nM CDK6/cyclin D1, 250 μM ATP, 180 minutes. How it is done: as §1
They were respectively dissolved in an enzyme buffer solution comprising: 50 mM hydroxyethylpiperazine ethanesulfuric acid solution at pH 7.5, 1 mM ethylenediaminetetraacetic acid, 10 mM magnesium chloride, 0.01% Brij-35, 2 mM dithiothreitol. After the reaction was started, the OptiPlate 384-well plate was sealed with a top heat seal film TopSeal-A and incubated at room temperature for 180 minutes.
as §2

Another series deals with NCI-H358 cells. The experiment in a line: Cell viability assay NCI-H358 (CellTiter-Glo). In kind it is cell-based. The conditions noted are these: Homo sapiens, 168 h; NCI-H358, incubated for 7 days. How it is done:
The NCI-H358 cell line is from the cell bank of the Department of Biology of WuXi Apptec Co. Ltd. Envision Multi-Label Analyzer (PerkinElmer).
1) 100 μL of phosphate buffer solution was added to the peripheral wells of the 384-well plate and 40 μL of NCI-H358 cell suspension was added to the other wells containing 250 NCI-H358 cells. The cell plate was then placed in a carbon dioxide incubator and incubated overnight.
2) A 3-fold gradient dilution was subjected to the tested compounds using Echo. Each compound was diluted by 10 concentration gradients (diluted from 25 μM to 1.27 nM), 100 nL of which was added to the corresponding wells of the cell plate. The cell plate was then placed in a carbon dioxide incubator and incubated for 7 days.
3) 20 μL of Promega CellTiter-Glo reagent was added to each well of the cell plate, and shaken for 10 minutes away from light at room temperature to stabilize the luminescence signal. Readings were performed using a PerkinElmer Envision Multi-label Analyzer.
Table 1 provides the inhibitory activity of the compounds of the present invention against the proliferation of H358 cells.
For orientation: ATP-based viability assays read luminescence as a measure of living cells.

The subject of series [3] is non-small cell lung cancer NCI-H358 model. Briefly: In vivo pharmacodynamic study (2), NCI-H358 model, tumor volume. Set-up: species or system BALB/c nude mice. The conditions noted are these: 60 mg/kg orally daily, Table 6-1. The method, then:
(§3) The in vivo pharmacodynamic experiments were performed on the BALB/c nude mice implanted subcutaneously with the non-small cell lung cancer NCI-H358 model.
(§4) All of the cages, beddings and water were disinfected before use. All of the animals were permitted free access to a standard certified commercial laboratory diet. A total of 86 mice purchased from Vital River Laboratory Animal Co., LTD, Beijing were used for the study. The animal information of the experiments in Example 34 was as follows: BALB/c nude mice, female, 6-8 weeks, weighing approximately 16-18 g, were placed in a single ventilated cage (4 mice per cage) under a special pathogen free environment. All of the cages, beddings and water were disinfected before use. All of the animals were permitted free access to a standard certified commercial laboratory diet. A total of 56 mice purchased from Shanghai Lingchang Biotechnology Co., Ltd. were used for the study.
(§5) Each mouse was implanted subcutaneously with NCI-H358 tumor cells in the right back for tumor growth. The dosing initiated when the average tumor volume reached about 100-200 mm^3. […] The tumor volume was measured twice a week using a two-dimensional caliper, and the volume was measured in mm^3, calculated by the following the formula: V=0.5 a×b^2, wherein, a and b were the long and short diameters of the tumor, respectively. The antitumor efficacy was determined by dividing the average increase in the tumor volume of the animals treated with the compound by the average increase in the tumor volume of the untreated animals, and the safety of the compound was determined by the change in the body weight of the animal treated with the compound.
TGI: Tumor Growth Inhibition.

Series [4] in a line: In vivo pharmacodynamic study (2), NCI-H358 model, animal weight. The conditions noted are these: 60 mg/kg orally daily. Set-up: species or system BALB/c nude mice. How it is done: as §3, §4, §5
Series [5] is described as follows: Two-way permeability evaluation assay of Caco-2 cells. As to conditions: human, Caco-2, pH 7.4.
The test system of another series is Caco-2 cells. Described as above. The conditions noted are these: Caco-2.

T2 sequence (Q00534 whole entry): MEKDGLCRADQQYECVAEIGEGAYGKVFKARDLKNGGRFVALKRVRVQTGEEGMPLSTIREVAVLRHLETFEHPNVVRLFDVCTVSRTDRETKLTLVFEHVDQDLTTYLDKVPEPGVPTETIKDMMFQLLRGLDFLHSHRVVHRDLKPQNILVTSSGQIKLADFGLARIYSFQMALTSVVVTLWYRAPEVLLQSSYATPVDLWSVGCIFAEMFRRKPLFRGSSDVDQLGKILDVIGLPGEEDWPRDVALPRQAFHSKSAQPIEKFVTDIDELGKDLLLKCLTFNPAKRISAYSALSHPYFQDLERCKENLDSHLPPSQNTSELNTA
T2 sequence (P24385 whole entry partner): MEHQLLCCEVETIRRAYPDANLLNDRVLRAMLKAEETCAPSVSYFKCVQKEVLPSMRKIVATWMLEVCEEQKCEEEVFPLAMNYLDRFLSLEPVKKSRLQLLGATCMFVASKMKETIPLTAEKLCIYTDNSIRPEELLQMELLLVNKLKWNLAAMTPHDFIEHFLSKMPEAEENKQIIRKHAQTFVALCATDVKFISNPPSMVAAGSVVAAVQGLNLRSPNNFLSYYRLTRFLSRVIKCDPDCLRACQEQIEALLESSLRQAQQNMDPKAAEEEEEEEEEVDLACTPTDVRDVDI
T1 sequence (P11802 whole entry): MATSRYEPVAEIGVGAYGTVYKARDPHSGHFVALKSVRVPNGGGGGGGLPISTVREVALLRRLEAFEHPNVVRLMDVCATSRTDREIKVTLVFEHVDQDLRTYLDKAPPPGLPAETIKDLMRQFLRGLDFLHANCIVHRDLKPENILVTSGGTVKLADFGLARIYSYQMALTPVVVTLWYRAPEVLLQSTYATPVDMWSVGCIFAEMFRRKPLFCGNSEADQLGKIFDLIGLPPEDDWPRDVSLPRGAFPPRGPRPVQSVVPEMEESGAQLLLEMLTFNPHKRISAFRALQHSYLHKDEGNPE
T1 sequence (P24385 whole entry partner): as the sequence (P24385 whole entry partner) above

Turning to `NC(=O)N1c2ccccc2C=Cc2ccccc21` [Carbamazepine, reference compound], the thermodynamic solubility at 24 h in series [1] came to 450 ± 60 µM (≈ 106 µg/mL). This molecule also registered a solubility (kinetic) at 24 h in the series “physchem” of 180 ± 15 µM (≈ 42.5 µg/mL).
In the case of `CC(=O)c1c(C)c2cnc(Nc3cnc(N4CCNCC4)cn3)cc2n(C2CCCC2)c1=O` [Example 1, 3-acetyl-1-cyclopentyl-4-methyl-7-[(5-piperazin-1-ylpyrazin-2-yl)amino]-1,6-naphthyridin-2-one], the “Gross tumor volume Day 0” value in series [2] (Day 0) is 144 mm^3. Moreover, the “Gross tumor volume Day 7” value in [2] (Day 7) came out at 132 mm^3. Besides, the “Gross tumor volume Day 14” value in series [2] (Day 14) is 182 mm^3. In [2] (Day 20), the “Gross tumor volume Day 20” value was 212 mm^3.
Take `CC(=O)c1c(C)c2cnc(Nc3cnc(N4CCN(C(C)C)CC4)cn3)cc2n(C2CCCC2)c1=O` [Example 3]: half-maximal inhibition at CDK4/cyclin D1 (IC50) required 6.1 nM. On CDK6/cyclin D1, inhibition was half-maximal at 2.9 nM (IC50). The same molecule came in with an IC50 in the series on NCI-H358 cells of 176 nM. The “Gross tumor volume, 0 day” value in series [3] (0 day) amounted to 152 mm^3. In series [3] (7 days), the “Gross tumor volume, 7 days” value worked out at 141 mm^3. In addition, the “Gross tumor volume, 14 days” value in [3] (14 days) came out at 159 mm^3. Also, the “Gross tumor volume, 17 days” value in series [3] (17 days) turned out to be 136 mm^3. In addition, the “Changes in animal weight, 0 days” value in series [4] (0 days) is 0.0%. Further, in series [4] (7 days), the “Changes in animal weight, 7 days” value is reported as −1.0%. For the same molecule, the “Changes in animal weight, 14 days” value in [4] (14 days) is reported as 0.5%. In series [4] (17 days), the “Changes in animal weight, 17 days” value was found to be 0.8%. In “physchem”, this molecule yielded a kinetic solubility at 24 h of 171 µM (≈ 83.7 µg/mL). Further, in series [5], the Papp A→B at 2 h, 2 μM was 10.9 ×10⁻⁶ cm/s; the Papp B→A at 2 h, 2 μM is 12.4 ×10⁻⁶ cm/s; the efflux ratio at 2 h, 2 μM is 1.14. Also, in the series with Caco-2 cells, the “Category Efflux transporter substrate” value is on record as “Less” and the “Category Permeability” value is “High”.
Take `CC(=O)c1c(C)c2cnc(Nc3cnc(N4CCN[C@@H](C)C4)cn3)cc2n(C2CCCC2)c1=O` [Example 9, 3-acetyl-1-cyclopentyl-4-methyl-7-[[5-[(3S)-3-methylpiperazin-1-yl]pyrazin-2-yl]amino]-1,6-naphthyridin-2-one]: the half-maximal inhibitory concentration (IC50) worked out at 9.1 nM at CDK4/cyclin D1, 3.4 nM on CDK6/cyclin D1 and 196 nM in the series on NCI-H358 cells.
The like results for `CC(=O)c1c(C)c2cnc(Nc3cnc(N4CCN(C(C)C)[C@@H](C)C4)cn3)cc2n(C2CCCC2)c1=O` [Example 11] were, in that order, 5.6 nM, 3.1 nM and 278 nM.
The matching figures for `CC(=O)c1c(C)c2cnc(Nc3cnc(N4CCN(C)C(C)(C)C4)cn3)cc2n(C2CCCC2)c1=O` [Example 14]: 7.1 nM, 2.4 nM and 197 nM.
For the molecule `CC(=O)c1c(C)c2cnc(Nc3cnc(N4CCN(C(C)C)C(C)(C)C4)cn3)cc2n(C2CCCC2)c1=O` [Example 15], the IC50 on CDK4/cyclin D1 was determined as 5.7 nM; against CDK6/cyclin D1 it was 3.1 nM; with NCI-H358 cells it was 262 nM.
The matching figures for `CC(=O)c1c(C)c2cnc(Nc3cnc(N4CC5CCC(C4)N5C)cn3)cc2n(C2CCCC2)c1=O` [Example 19]: 7 nM, 3.7 nM and 214 nM.
The matching figures for `CC(=O)c1c(C)c2cnc(Nc3cnc(C4CCNCC4)cn3)cc2n(C2CCCC2)c1=O` [Example 28]: 8.3 nM, 3.5 nM and 295 nM.
The matching figures for `CC(=O)c1c(C)c2cnc(Nc3cnc(N4CCN(CCO)CC4)cn3)cc2n(C2CCCC2)c1=O` [Example 33]: 8.62 nM, 4.66 nM and 153 nM.
For `CC(=O)c1c(C)c2cnc(Nc3cnc(N4CCN(CCN)CC4)cn3)cc2n(C2CCCC2)c1=O` [Example 35], the IC50 against CDK4/cyclin D1 turned out to be 5.06 nM; at CDK6/cyclin D1, 2.97 nM; in the series with NCI-H358 cells, 189 nM.

A word on the solubility (thermodynamic): it is the concentration in solution at equilibrium with solid. As usually defined, the kinetic solubility is solubility judged after dilution from a stock solution rather than from solid. One may read the IC50 as the point on the concentration scale where inhibition reaches its midpoint. The low end stands for higher potency, the high end for lower potency. As a reminder, the Papp A→B is how fast a substance crosses the layer from the apical side. One may read the Papp B→A as the apparent permeability from the basolateral to the apical side of a cell layer. Usually efflux ratio stands for the permeability from basolateral to apical divided by that in the opposite direction, in the common usage.
